# Source: ChEMBL document CHEMBL1152560, “Substituted 2-arylbenzothiazoles as kinase inhibitors: hit-to-lead optimization” (Bioorg Med Chem, 2009)
# Tests used:
# [1] = molecular target: Dual specificity protein kinase CLK1 (Homo sapiens) (UniProt P49759); experiment: Residual activity of CLK1 at 0.1 uM by microplate scintillation counting
# [2] = molecular target: T1, Tyrosine-protein kinase Mer (Homo sapiens) (UniProt Q12866); experiment: Residual activity of MERTK at 0.1 uM by microplate scintillation counting
# T1 sequence (whole entry): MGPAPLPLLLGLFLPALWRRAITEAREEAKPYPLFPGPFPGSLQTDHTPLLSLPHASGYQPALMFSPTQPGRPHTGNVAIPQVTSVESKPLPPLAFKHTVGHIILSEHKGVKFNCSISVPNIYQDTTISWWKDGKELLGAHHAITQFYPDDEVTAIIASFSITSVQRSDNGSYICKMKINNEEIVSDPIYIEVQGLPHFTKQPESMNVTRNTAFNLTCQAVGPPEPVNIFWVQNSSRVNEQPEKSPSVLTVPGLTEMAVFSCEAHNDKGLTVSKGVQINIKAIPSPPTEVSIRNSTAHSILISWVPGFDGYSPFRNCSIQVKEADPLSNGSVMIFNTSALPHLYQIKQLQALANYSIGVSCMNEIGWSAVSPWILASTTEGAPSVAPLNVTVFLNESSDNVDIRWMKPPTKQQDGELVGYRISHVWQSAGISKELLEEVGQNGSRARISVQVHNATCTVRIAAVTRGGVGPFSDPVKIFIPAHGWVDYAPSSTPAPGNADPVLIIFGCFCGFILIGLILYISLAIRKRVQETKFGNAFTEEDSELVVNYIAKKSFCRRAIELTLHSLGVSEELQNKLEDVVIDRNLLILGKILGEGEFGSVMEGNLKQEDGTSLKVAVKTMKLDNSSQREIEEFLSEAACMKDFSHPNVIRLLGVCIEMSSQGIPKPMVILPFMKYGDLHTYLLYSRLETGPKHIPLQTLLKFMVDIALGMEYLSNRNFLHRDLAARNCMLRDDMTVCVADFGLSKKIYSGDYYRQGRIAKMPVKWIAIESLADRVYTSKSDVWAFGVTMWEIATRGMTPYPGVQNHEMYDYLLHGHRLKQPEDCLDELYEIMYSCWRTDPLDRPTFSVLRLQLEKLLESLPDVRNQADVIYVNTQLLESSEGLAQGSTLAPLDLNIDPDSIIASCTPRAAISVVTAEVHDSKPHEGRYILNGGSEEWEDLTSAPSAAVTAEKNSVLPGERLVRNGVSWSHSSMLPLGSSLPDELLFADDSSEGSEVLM
# [3] = molecular target: T2, Eukaryotic translation initiation factor 2-alpha kinase 3 (Homo sapiens) (UniProt Q9NZJ5); experiment: Residual activity of EIF2AK3 at 10 uM by microplate scintillation counting
# T2 sequence (whole entry): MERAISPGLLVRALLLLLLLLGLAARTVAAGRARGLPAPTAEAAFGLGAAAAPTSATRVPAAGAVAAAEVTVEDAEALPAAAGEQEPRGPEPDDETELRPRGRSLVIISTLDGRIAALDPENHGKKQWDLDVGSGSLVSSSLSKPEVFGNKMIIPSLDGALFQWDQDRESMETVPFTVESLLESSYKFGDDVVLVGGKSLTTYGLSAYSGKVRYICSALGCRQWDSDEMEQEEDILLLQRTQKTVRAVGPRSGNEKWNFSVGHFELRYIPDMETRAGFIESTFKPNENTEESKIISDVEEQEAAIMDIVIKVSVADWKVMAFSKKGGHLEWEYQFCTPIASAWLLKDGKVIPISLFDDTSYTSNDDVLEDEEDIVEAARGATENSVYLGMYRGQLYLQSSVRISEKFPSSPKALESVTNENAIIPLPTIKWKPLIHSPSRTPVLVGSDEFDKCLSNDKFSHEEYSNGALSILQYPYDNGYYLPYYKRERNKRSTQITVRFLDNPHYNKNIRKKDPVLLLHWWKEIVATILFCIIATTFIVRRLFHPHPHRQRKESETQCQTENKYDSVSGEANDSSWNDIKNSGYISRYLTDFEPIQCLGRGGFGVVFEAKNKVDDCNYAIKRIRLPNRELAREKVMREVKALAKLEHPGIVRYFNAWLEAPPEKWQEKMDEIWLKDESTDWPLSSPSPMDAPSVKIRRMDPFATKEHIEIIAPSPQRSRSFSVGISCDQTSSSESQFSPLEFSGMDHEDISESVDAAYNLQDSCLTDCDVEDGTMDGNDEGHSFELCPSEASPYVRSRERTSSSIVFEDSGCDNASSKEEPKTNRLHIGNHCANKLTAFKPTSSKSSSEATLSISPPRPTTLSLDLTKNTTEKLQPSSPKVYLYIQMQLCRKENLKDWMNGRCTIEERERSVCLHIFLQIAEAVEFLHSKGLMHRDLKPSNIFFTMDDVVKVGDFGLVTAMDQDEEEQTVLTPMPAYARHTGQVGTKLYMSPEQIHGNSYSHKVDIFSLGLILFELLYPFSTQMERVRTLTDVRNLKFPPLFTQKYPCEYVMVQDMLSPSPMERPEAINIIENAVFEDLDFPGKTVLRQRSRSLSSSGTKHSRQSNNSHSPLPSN
# [4] = molecular target: ALK tyrosine kinase receptor (Homo sapiens) (UniProt Q9UM73); experiment: Residual activity of ALK at 1 uM by microplate scintillation counting
# [5] = molecular target: Calcium/calmodulin-dependent protein kinase kinase 2 (Homo sapiens) (UniProt Q96RR4); experiment: Residual activity of CAMKK2 at 1 uM by microplate scintillation counting
# [6] = molecular target: Serine/threonine-protein kinase PAK 4 (Homo sapiens) (UniProt O96013); experiment: Residual activity of PAK4 at 0.1 uM by microplate scintillation counting
# [7] = molecular target: Ribosomal protein S6 kinase alpha-4 (Homo sapiens) (UniProt O75676); experiment: Residual activity of RPS6KA4 at 10 uM by microplate scintillation counting
# [8] = molecular target: SRSF protein kinase 2 (Homo sapiens) (UniProt P78362); experiment: Residual activity of SRPK2 at 10 uM by microplate scintillation counting
# [9] = molecular target: Proto-oncogene tyrosine-protein kinase receptor Ret (Homo sapiens) (UniProt P07949); experiment: Residual activity of RET at 0.1 uM by microplate scintillation counting
# [10] = Residual activity of S6K at 0.1 uM by microplate scintillation counting
# [11] = molecular target: SRSF protein kinase 1 (Homo sapiens) (UniProt Q96SB4); experiment: Residual activity of SRPK1 at 0.1 uM by microplate scintillation counting
# [12] = molecular target: Vascular endothelial growth factor receptor 2 (Homo sapiens, UniProt P35968); experiment: Residual activity of VEGFR2 at 0.1 uM by microplate scintillation counting
# [13] = molecular target: 3-phosphoinositide-dependent protein kinase 1 (Homo sapiens) (UniProt O15530); experiment: Residual activity of PDK1 at 1 uM by microplate scintillation counting
# Ribosomal protein S6 kinase alpha-4 (Homo sapiens), sequence (O75676 whole entry, looked up): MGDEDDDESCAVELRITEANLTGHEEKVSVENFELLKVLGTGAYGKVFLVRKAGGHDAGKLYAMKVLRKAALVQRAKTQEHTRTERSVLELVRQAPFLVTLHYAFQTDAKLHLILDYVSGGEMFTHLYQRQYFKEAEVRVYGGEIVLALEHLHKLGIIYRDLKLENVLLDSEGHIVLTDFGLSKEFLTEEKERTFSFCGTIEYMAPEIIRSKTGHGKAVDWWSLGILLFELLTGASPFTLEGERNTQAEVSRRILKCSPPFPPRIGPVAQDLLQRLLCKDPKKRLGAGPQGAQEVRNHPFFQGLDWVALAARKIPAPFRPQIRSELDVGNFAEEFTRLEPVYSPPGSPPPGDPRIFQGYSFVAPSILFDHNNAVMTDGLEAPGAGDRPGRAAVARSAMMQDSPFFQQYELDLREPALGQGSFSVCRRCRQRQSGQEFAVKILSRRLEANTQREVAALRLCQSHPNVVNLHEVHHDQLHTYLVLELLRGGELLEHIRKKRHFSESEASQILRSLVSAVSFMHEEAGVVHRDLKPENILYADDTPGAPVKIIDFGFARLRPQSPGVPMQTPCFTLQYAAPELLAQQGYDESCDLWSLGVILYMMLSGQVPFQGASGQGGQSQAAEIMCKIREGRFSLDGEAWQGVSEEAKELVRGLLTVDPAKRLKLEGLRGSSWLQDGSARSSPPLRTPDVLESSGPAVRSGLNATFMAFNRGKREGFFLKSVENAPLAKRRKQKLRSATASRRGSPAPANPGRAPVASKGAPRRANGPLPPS
# ALK tyrosine kinase receptor (Homo sapiens), sequence (Q9UM73 19-1620 limits assumed): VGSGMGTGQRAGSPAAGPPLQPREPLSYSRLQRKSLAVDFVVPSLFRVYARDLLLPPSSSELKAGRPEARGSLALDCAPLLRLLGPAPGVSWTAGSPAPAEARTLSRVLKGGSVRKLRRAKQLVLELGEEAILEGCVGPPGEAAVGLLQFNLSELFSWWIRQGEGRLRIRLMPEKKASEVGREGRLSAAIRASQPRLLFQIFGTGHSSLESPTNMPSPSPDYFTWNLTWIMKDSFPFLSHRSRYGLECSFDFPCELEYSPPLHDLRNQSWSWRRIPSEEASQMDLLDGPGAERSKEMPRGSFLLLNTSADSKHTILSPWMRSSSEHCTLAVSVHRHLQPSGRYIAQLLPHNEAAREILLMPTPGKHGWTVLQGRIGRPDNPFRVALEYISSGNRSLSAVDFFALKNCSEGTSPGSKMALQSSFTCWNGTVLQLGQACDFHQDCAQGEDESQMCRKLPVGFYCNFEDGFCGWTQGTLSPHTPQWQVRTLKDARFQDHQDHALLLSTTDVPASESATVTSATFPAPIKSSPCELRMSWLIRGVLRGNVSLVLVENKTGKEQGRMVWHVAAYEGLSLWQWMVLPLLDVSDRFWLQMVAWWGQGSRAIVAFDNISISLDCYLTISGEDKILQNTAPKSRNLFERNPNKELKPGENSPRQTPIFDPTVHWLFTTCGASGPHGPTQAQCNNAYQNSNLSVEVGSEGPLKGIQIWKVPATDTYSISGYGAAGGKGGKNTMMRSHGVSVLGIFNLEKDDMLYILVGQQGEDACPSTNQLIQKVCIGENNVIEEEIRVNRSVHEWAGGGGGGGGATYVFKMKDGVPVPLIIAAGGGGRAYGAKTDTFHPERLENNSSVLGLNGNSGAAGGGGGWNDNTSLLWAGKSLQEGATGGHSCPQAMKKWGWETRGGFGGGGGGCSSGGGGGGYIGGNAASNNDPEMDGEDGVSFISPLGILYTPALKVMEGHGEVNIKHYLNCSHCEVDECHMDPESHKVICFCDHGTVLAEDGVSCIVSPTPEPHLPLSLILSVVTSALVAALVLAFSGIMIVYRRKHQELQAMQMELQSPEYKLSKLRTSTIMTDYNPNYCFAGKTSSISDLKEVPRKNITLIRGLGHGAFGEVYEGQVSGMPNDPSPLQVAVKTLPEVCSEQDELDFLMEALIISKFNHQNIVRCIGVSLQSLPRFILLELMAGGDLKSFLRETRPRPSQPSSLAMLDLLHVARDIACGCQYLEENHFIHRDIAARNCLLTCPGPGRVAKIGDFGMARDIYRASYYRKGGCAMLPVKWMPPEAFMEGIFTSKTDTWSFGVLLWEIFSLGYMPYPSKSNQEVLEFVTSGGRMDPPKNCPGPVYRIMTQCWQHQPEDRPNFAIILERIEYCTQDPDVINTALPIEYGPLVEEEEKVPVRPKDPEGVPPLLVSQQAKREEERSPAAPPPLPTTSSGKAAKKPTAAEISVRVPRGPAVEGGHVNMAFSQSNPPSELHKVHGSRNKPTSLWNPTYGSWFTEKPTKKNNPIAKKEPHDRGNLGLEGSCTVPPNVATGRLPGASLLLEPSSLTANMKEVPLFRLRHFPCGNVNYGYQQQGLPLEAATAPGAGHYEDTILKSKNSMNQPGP
# Vascular endothelial growth factor receptor 2, sequence (P35968 whole entry): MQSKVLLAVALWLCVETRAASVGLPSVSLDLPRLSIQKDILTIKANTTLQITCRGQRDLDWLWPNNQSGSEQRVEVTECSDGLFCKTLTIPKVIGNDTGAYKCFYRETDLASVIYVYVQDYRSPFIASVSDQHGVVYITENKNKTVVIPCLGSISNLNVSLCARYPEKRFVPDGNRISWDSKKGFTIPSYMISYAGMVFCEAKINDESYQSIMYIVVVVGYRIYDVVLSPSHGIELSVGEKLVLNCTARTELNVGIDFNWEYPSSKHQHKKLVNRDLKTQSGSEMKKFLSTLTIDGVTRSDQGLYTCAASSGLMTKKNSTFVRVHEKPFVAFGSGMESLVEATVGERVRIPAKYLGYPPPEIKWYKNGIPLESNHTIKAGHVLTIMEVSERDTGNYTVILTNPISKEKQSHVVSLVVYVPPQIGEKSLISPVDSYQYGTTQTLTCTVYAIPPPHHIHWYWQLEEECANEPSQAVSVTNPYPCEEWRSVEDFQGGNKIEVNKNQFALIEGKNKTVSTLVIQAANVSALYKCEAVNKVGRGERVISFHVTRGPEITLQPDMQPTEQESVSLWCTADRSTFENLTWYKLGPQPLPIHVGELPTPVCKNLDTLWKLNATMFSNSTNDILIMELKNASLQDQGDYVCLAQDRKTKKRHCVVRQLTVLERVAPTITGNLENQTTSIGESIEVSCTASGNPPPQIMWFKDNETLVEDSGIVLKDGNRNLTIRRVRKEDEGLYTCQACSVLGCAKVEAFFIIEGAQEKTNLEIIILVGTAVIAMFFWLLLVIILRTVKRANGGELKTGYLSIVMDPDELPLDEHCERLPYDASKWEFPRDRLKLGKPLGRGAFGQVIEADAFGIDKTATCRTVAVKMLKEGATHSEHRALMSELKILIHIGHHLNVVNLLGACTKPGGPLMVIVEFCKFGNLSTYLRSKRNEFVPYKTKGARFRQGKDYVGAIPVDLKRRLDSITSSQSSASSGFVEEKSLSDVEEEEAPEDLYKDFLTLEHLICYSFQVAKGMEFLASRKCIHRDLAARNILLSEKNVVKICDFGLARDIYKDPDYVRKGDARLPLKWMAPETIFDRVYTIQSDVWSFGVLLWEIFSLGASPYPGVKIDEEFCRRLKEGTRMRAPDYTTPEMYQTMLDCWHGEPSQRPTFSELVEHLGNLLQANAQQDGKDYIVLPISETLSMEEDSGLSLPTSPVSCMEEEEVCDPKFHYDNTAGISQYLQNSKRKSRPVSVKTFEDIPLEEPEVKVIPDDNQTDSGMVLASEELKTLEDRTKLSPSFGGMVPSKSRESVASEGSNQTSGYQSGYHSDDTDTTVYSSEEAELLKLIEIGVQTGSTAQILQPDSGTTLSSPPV
# Proto-oncogene tyrosine-protein kinase receptor Ret (Homo sapiens), sequence (P07949 whole entry): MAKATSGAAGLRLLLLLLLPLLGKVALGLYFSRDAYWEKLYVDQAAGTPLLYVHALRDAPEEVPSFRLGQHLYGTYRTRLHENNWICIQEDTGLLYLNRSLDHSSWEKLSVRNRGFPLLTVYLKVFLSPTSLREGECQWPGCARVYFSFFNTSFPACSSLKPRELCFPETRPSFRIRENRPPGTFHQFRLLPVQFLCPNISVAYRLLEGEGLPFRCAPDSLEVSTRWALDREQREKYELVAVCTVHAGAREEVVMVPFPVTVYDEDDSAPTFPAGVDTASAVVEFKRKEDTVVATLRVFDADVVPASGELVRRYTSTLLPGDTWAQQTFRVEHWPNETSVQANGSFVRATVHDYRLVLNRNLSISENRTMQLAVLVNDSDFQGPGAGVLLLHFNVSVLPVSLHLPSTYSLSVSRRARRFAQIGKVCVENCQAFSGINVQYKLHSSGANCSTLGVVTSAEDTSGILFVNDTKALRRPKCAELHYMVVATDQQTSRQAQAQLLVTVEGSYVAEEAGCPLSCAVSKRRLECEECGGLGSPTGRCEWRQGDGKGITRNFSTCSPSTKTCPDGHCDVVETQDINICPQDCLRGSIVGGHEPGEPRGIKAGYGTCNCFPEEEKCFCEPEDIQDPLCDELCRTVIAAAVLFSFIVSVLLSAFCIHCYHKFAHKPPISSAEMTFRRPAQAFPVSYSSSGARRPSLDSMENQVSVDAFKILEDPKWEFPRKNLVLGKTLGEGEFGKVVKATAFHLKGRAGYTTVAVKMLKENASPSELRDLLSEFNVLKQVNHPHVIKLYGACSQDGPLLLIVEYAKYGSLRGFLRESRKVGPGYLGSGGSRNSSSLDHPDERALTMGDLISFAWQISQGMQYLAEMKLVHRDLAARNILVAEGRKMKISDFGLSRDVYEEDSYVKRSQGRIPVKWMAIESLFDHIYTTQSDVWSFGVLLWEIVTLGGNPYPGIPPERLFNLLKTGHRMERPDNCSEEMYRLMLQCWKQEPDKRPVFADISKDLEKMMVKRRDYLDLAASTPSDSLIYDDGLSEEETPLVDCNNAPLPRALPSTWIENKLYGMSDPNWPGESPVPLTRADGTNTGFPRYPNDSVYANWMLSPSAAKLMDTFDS
residual activity [1],residual activity [2],residual activity [3],residual activity [4],residual activity [5],residual activity [6],residual activity [7],residual activity [8],residual activity [9],residual activity [10],residual activity [11],residual activity [12],residual activity [13],SMILES
114%,57%,239%,169%,85%,96%,162%,128%,97%,90%,103%,73%,102%,COc1cc2c(Oc3ccc(-c4nc5ccccc5s4)cc3)ncnc2cc1OCCCN1CCCC1
94%,75%,256%,171%,91%,102%,135%,115%,92%,85%,96%,65%,101%,COc1cc2c(Oc3ccc(-c4nc5ccccc5s4)cc3)ncnc2cc1OCCCN1CCN(C)CC1
96%,68%,155%,178%,90%,99%,142%,100%,101%,87%,91%,73%,108%,COc1cc2c(Oc3ccc(-c4nc5ccccc5s4)cc3F)ncnc2cc1OCCCN1CCN(C)CC1
